Data: US20060183800A1, “Methods and fluorinated compositions for treating amyloid-related diseases” (priority 2004, published 2006)

Biological target: solubilized Aβ40 (Homo sapiens, UniProt P05067)
Experiment: MS (mass spectrometry) binding assay for Aβ40
Protocol: The test compounds were synthesized and screened by mass spectrometry (“MS”) assays. The MS assay gives data on the ability of compounds to bind to proteins, in this example, to β-amyloid.
In the MS assay for Aβ40, the sample was prepared as an aqueous solution (adding 20% ethanol if necessary to solubilize in water), 200 μM of a test compound and 20 μM of solubilized Aβ40, or 400 μM of a test compound and 40 μM of solubilized Aβ40. The pH value of the sample was adjusted to 7.4 (±0.2) by addition of 0.1% aqueous sodium hydroxide. The solution was then analyzed by electrospray ionization mass spectrometry using a Waters ZQ 4000 mass spectrometer. The sample was introduced by direct infusion at a flow-rate of 25 μL/min within 2 hr. after sample preparation. The source temperature was kept at 70° C. and the cone voltage was 20 V for all the analysis. Data were processed using Masslynx 3.5 software. The MS assay gives data on the ability of compounds to bind to soluble Aβ.

Sequence of solubilized Aβ40 (P05067 672-711 limits assumed): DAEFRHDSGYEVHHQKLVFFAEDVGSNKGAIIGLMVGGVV

## O=S(=O)(O)CCCNCC(F)(F)F [3-[(2,2,2-trifluoroethyl)amino]-1-propanesulfonic acid]
200 μM of test compound
  binding to soluble Aβ40: 20-44%
400 μM of test compound
  binding to soluble Aβ40: 45-59%
